Source: EPA's ToxValDB 9.5

Key:
Rattus norvegicus = experiment: FEL; higher = less toxic; conditions: duration: 14 days, oral, gavage, Crl:CD(SD)
Mus musculus = conditions: uterotrophic; duration: 3 days; oral; Active

| SMILES | FEL (Rattus norvegicus; developmental, F, generation: F1, F1: Whole Body: Body Weight, Fetal, PND0 + F1: Whole Body: Body Weight, Fetal, PND1 + F1: Whole Body: Body Weight, Fetal, PND4) [mg/kg-day] | FEL (Rattus norvegicus; developmental, M, generation: F1, F1: Whole Body: Body Weight, Fetal, PND1 + F1: Whole Body: Body Weight, Fetal, PND4) [mg/kg-day] | FEL (Rattus norvegicus; reproduction developmental, F, generation: P0, P0: Adrenal: Adrenal Gland Weight, Absolute + P0: Adrenal: Adrenal Gland Weight, Relative + P0: Blood: Albumin/Globulin (A/G) Ratio + P0: …) [mg/kg-day] | FEL (Rattus norvegicus; reproduction developmental, M/F, generation: F1, F1: Uterus: Fetuses, Dead + F1: Whole Body: Live Birth Index + F1: Whole Body: Male Pups per Pups Sexed + F1: Whole Body: Number of litters) [mg/kg-day] | LEL (Mus musculus) [mg/kg-day] |
| --- | --- | --- | --- | --- | --- |
| O=C(O)C(F)(F)C(F)(F)C(F)(F)C(F)(F)C(F)(F)C(F)(F)C(F)(F)C(F)(F)C(F)(F)C(F)(F)C(F)(F)F [Perfluorododecanoic acid] | 2.5 | 2.5 | 2.5 | 2.5 |  |
| O=C(O)C(F)(F)C(F)(F)C(F)(F)C(F)(F)C(F)(F)C(F)(F)C(F)(F)F [Perfluorooctanoic acid] |  |  |  |  | 0.01 |
